Assay results as given in patent US9115151B2, “Substituted 2,10-dihydro-9-oxa-1,2,4A-triazaphenanthren-3-ones and uses thereof” (AbbVie Inc., priority 2012, dated 2015).
pEC50, pIC50: −log10 of the molar value. Counter-ions that a name gives are not always drawn. Like-named read-outs stand apart in the source and are kept apart here.

What was measured:
[1] = system: CD3/CD28 induced IL-2 in human T-Blasts; assay: T-Blasts CD3/CD28 induced IL-2 assay; format: cell-based; conditions: read-out: CD3/CD28-stimulated IL2 in T-blasts EC50
Experimental: T-Blasts CD3/CD28 Induced IL-2 Assay
Human T-Blasts are generated using PHA following standard protocols. T-Blasts are freeze aliquoted and vials thawed as required. […] Seed 2×10^5/100 μL cell suspension per well in flat bottomed 96 well plate. Compound dilutions are prepared from 100% DMSO stocks. A total of 8 serial dilutions are made (1/3 in 100% DMSO). Compounds are diluted 1/50 in growth medium to prepare 4× stocks of each tested concentration. 50 μL from each 4× stock concentration is added to the 100 μL cell suspension and incubated for 30 minutes prior stimulus addition. A 4× stimulus stock is prepared using anti-CD3+anti-CD28 antibodies. Antibody mix is added to the cell/compounds suspension in 50 μL at 5 μg/mL final concentration. Compounds are tested in duplicates. Plates are transferred to 37° C./CO2 incubator for 24 hours. After incubation 130 μL of supernatant is collected for IL-2 determination while MTT toxicity analysis is performed on remaining cells/medium.

PKCα = target: T1, PKCα (Homo sapiens, UniProt P17252); assay: In vitro enzyme assay (time-resolved fluorescence kinase assay), PKCα, 100 μM ATP; format: biochemical
T1 construct: His6; purchased Millipore; host or cells: baculovirus in Sf21 cells
Experimental: (§1) PKC kinase activity was assayed by time-resolved fluorescence in vitro kinase assay. Unless otherwise indicated, all reagents used for enzyme assays were obtained from Sigma. Specifically, 5 μL N- or C-terminal His6-tagged, recombinant, human PKC, expressed by baculovirus in Sf21 cells (Millipore) was mixed with 5 μL inhibitor (various concentrations, 5% final DMSO), 5 μL Bio-cdc peptide (Biotin-Ahx-[…], 2 μM final concentration, New England Peptide) and 5 μL of ATP (100 μM or 1000 μM final concentration) in 1× reaction buffer, 20 μL final volume.
(§2) Following a sixty minute incubation at room temperature, the reaction was quenched with 5 μL of 0.5 M EDTA pH 7.5.
(§3) Background counts from a minus enzyme control is subtracted from all data. Data (after background correction) are converted to percent activity by dividing by the signal obtained from PKC without drug sample.

PKCθ = target: T2, PKCθ (Homo sapiens, UniProt Q04759); assay: In vitro enzyme assay (time-resolved fluorescence kinase assay), PKCθ, 100 μM ATP; format: biochemical
T2 construct: His6; purchased Millipore; host or cells: baculovirus in Sf21 cells
Experimental: as §1, §2, §3

[2] = 100 μM ATP, read-out: PKCα enzyme IC50

T2 sequence (Q04759 whole entry): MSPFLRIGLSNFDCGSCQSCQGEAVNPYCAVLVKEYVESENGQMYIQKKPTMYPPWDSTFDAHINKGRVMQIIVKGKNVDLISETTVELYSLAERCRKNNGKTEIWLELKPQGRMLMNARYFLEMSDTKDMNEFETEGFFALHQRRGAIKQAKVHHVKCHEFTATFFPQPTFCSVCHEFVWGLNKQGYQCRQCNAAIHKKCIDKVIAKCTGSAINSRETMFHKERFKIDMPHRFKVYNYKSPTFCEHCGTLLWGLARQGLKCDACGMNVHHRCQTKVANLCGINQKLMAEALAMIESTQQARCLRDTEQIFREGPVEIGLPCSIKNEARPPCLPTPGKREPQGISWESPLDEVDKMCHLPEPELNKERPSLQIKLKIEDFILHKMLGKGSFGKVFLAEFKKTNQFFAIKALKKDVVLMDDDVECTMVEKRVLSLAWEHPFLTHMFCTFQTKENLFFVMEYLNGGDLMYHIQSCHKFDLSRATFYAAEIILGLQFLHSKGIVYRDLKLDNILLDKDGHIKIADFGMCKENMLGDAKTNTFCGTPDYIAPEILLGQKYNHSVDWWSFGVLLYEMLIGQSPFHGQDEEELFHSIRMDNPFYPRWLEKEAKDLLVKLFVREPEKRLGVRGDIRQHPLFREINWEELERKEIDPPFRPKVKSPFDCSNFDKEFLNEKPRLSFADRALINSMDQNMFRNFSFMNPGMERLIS

| SMILES | pEC50 [1] | pIC50 (PKCα; [2]) | pIC50 (PKCθ) | pIC50 (PKCα) |
| --- | --- | --- | --- | --- |
| CC1C(=O)NN=C2COc3cc(-c4ccc(C(F)(F)F)cc4)c(NC4CNC4)cc3N21 (racemic) [Example 14] | > 6.60 | 5.00 to 6.00 | 6.00 to 6.60 |  |
| CC1C(=O)NN=C2COc3cc(-c4cccc(Cl)c4)c(NC4CNC4)cc3N21 (racemic) [Example 17] | > 6.60 | 5.00 to 6.00 | > 6.60 |  |
| Cc1cccc(-c2cc3c(cc2NC2CNC2)N2C(=NNC(=O)C2C)CO3)c1 (racemic) [Example 22] | > 6.60 | 5.00 to 6.00 | > 6.60 |  |
| CC1C(=O)NN=C2COc3cc(-c4ccc(F)c(F)c4)c(NC4CNC4)cc3N21 (racemic) [Example 23] | > 6.60 | 5.00 to 6.00 | > 6.60 |  |
| CC1C(=O)NN=C2COc3cc(-c4cccc(C(F)(F)F)c4)c(NC4CNC4)cc3N21 (racemic) [Example 24] | > 6.60 | 5.00 to 6.00 | 6.00 to 6.60 |  |
| CC1C(=O)NN=C2COc3cc(-c4ccc(C(C)(C)C)cc4)c(NC4CNC4)cc3N21 (racemic) [Example 26] | > 6.60 | 5.00 to 6.00 | 6.00 to 6.60 |  |
| CC1C(=O)NN=C2COc3cc(-c4ccccc4OC(F)(F)F)c(NC4CNC4)cc3N21 (racemic) [Example 27] | > 6.60 | 5.00 to 6.00 | > 6.60 |  |
| CC1C(=O)NN=C2COc3cc(-c4ccccc4C(F)(F)F)c(NC4CNC4)cc3N21 (racemic) [Example 28] | > 6.60 | 5.00 to 6.00 | > 6.60 |  |
| COc1ccc(-c2cc3c(cc2NC2CNC2)N2C(=NNC(=O)C2C)CO3)cc1 (racemic) [Example 30] | 6.00 to 6.60 | 5.00 to 6.00 | > 6.60 |  |
| C[C@H]1C(=O)NN=C2COc3cc(C(F)(F)F)c(NC4CNC4)cc3N21 (single isomer, unassigned) [Example 53-1, trifluoroacetic acid] | 6.00 to 6.60 | 5.00 to 6.00 |  |  |
| C[C@@H]1C(=O)NN=C2COc3cc(C(F)(F)F)c(NC4(C)CNC4)cc3N21 (single isomer, unassigned) [Example 100-1, trifluoroacetic acid] | > 6.60 | 5.00 to 6.00 |  |  |
| CC1C(=O)NN=C2COc3cc(C(F)(F)F)c(NC4(C)CNC4)cc3N21 (stereo not drawn) [Example 81, 4-Methyl-6-(3-methyl-azetidin-3-ylamino)-7-trifluoromethyl-2,10-dihydro-9-oxa-1,2,4a-triaza-phenanthren-3-one] | 6.00 to 6.60 | 5.00 to 6.00 |  |  |
| Cc1cc2c(cc1NC1(C)CNC1)N1C(=NNC(=O)C1C)CO2 (stereo not drawn) [Example 98, 4,7-Dimethyl-6-(3-methyl-azetidin-3-ylamino)-2,10-dihydro-9-oxa-1,2,4a-triaza-phenanthren-3-one trifluoroacetic acid] |  | 5.00 to 6.00 | 5.00 to 6.00 |  |
| C[C@H]1C(=O)NN=C2COc3cc(C(F)(F)F)c(NC4(C)CNC4)cc3N21 [Example 100-2, (S)-1-Methyl-9-((3-methylazetidin-3-yl)amino)-8-(trifluoromethyl)-3,5-dihydrobenzo[5,6][1,4]oxazino[3,4-c][1,2,4]triazin-2(1H)-one trifluoacetic acid salt] | 6.00 to 6.60 | 6.00 to 6.60 |  |  |
| CC1NCC1Nc1ccc2c(c1)N1C(=NNC(=O)C1C)CO2 (stereo not drawn) [Example 118, 4-Methyl-6-(2-methyl-azetidin-3-ylamino)-2,10-dihydro-9-oxa-1,2,4a-triaza-phenanthren-3-one trifluoroacetic acid] |  | 5.00 to 6.00 | 6.00 to 6.60 |  |
| C[C@H]1C(=O)NN=C2COc3cc4ccn([C@]5(C)CCNC5)c4cc3N21 [Example 165, (S)-1-Methyl-10-((R)-3-methyl-pyrrolidin-3-yl)-3,5-dihydro-10H-6-oxa-3,4,10,11b-tetraaza-cyclopenta[b]phenanthren-2-one] |  | 5.00 to 6.00 | 6.00 to 6.60 |  |
| Cc1ccc(-c2cc3c(cc2[C@@H]2CCN(C)C[C@@H]2C)N2C(=NNC(=O)[C@H]2C)CO3)c(F)c1 [Example 200] | > 6.60 | > 6.60 |  |  |
| COc1ccc(-c2cc3c(cc2[C@@H]2CCN(C)C[C@@H]2C)N2C(=NNC(=O)[C@H]2C)CO3)c(F)c1 [Example 201] | > 6.60 |  |  | > 6.60 |
| CC1C(=O)NN=C2COc3cc(-c4ccccc4F)c(N4CC5CCC4CN5)cc3N21 (stereo not drawn) [Example 229] |  | 5.00 to 6.00 | 6.00 to 6.60 |  |
| C[C@@H]1C(=O)NN=C2COc3cc(-c4c(F)cccc4F)c([C@@H]4CCN(C)C[C@@H]4C)cc3N21 [Example 245, (R)-7-(2,6-Difluoro-phenyl)-6-((3R,4R)-1,3-dimethyl-piperidin-4-yl)-4-methyl-2,10-dihydro-9-oxa-1,2,4a-triaza-phenanthren-3-one] | > 6.60 | 6.00 to 6.60 |  |  |

Further lines, with some results ahead:

| pEC50 [1] | pIC50 (PKCα; [2]) | pIC50 (PKCθ) | SMILES | pIC50 (PKCα) |
| --- | --- | --- | --- | --- |
| > 6.60 | 5.00 to 6.00 | > 6.60 | Cc1ccc(-c2cc3c(cc2NC2CNC2)N2C(=NNC(=O)C2C)CO3)c(F)c1 (racemic) [Example 12] |  |
| > 6.60 | 5.00 to 6.00 | > 6.60 | Cc1cc(F)ccc1-c1cc2c(cc1NC1CNC1)N1C(=NNC(=O)C1C)CO2 (racemic) [Example 13] |  |
| > 6.60 | 5.00 to 6.00 | > 6.60 | Cc1ccc(F)cc1-c1cc2c(cc1NC1CNC1)N1C(=NNC(=O)C1C)CO2 (racemic) [Example 15] |  |
| > 6.60 | 5.00 to 6.00 | 6.00 to 6.60 | CC1C(=O)NN=C2COc3cc(-c4cccc(OC(F)(F)F)c4)c(NC4CNC4)cc3N21 (racemic) [Example 16] |  |
| > 6.60 | 5.00 to 6.00 | > 6.60 | Cc1ccc(-c2cc3c(cc2NC2CNC2)N2C(=NNC(=O)C2C)CO3)cc1F (racemic) [Example 18] |  |
| > 6.60 | 5.00 to 6.00 | 6.00 to 6.60 | CC1C(=O)NN=C2COc3cc(-c4ccc(N(C)C)cc4)c(NC4CNC4)cc3N21 (racemic) [Example 19] |  |
| > 6.60 | 5.00 to 6.00 | > 6.60 | COc1cccc(-c2cc3c(cc2NC2CNC2)N2C(=NNC(=O)C2C)CO3)c1 (racemic) [Example 20] |  |
| > 6.60 | 5.00 to 6.00 | 6.00 to 6.60 | CC1C(=O)NN=C2COc3cc(-c4ccc(OC(F)(F)F)cc4)c(NC4CNC4)cc3N21 (racemic) [Example 21] |  |
| > 6.60 | 5.00 to 6.00 | > 6.60 | CC1C(=O)NN=C2COc3cc(-c4ccc(Cl)c(Cl)c4)c(NC4CNC4)cc3N21 (racemic) [Example 25] |  |
| > 6.60 | 5.00 to 6.00 | > 6.60 | Cc1ccc(-c2cc3c(cc2NC2CNC2)N2C(=NNC(=O)C2C)CO3)cc1 (racemic) [Example 29] |  |
| > 6.60 | 5.00 to 6.00 |  | C[C@@H]1C(=O)NN=C2COc3cc(C(F)(F)F)c(NC4CNC4)cc3N21 (single isomer, unassigned) [Example 53-2, trifluoroacetic acid] |  |
|  | 5.00 to 6.00 | 5.00 to 6.00 | C[C@@H]1C(=O)NN=C2COc3cc(C(F)(F)F)c([C@H](C)C4(C)CNC4)cc3N21 (single isomer, unassigned) [Example 147-2, trifluoroacetic acid] |  |
| > 6.60 |  | > 6.60 | COc1cccc(-c2cc3c(cc2[C@@H]2CCN(C)C[C@@H]2C)N2C(=NNC(=O)[C@H]2C)CO3)c1F [Example 237, (R)-6-((3R,4R)-1,3-Dimethyl-piperidin-4-yl)-7-(2-fluoro-3-methoxy-phenyl)-4-methyl-2,10-dihydro-9-oxa-1,2,4a-triaza-phenanthren-3-one] |  |
| > 6.60 |  | > 6.60 | COc1ccc(F)c(-c2cc3c(cc2[C@@H]2CCN(C)C[C@@H]2C)N2C(=NNC(=O)[C@H]2C)CO3)c1 [Example 241] |  |
